Our source for the Activity and IC50 values is ChEMBL document CHEMBL1150976, “The selectivity of protein kinase inhibitors: a further update” (Biochem J, 2007).

One experiment addresses Aurora kinase B (Homo sapiens, UniProt Q96GD4). The experiment can be described thus: Percentage Aurora B activity remaining in the presence of 2uM inhibitor.
In experiment [1] the target is Calcium/calmodulin-dependent protein kinase kinase 1 (Homo sapiens) (UniProt Q8N5S9). Description: Percentage CaMKKalpha activity remaining in the presence of 2uM inhibitor.
In experiment [2] the target is Homeodomain-interacting protein kinase 3 (Homo sapiens) (UniProt Q9H422). The experiment can be described thus: Percentage HIPK3 activity remaining in the presence of 2uM inhibitor. To be noted: filed as antagonist.
The target of experiment [3] is Calcium/calmodulin-dependent protein kinase type 1 (Homo sapiens) (UniProt Q14012). The experiment can be described thus: Percentage CaMK1 activity remaining in the presence of 2uM inhibitor.
The target of experiment [4] is Cyclin-dependent kinase 2/cyclin A (Homo sapiens) (UniProt P24941+P20248+P78396). The experiment can be described thus: Percentage CDK2-cyclinA activity remaining in the presence of 2uM inhibitor. The format is protein-complex assay.
The target of experiment [5] is T1, Myosin light chain kinase, smooth muscle (Homo sapiens, UniProt Q15746). Description: Percentage SmMLCK activity remaining in the presence of 2uM inhibitor.
For experiment [6], the target named is Serine/threonine-protein kinase PLK1 (Homo sapiens, UniProt P53350). Description: Percentage PLK1 activity remaining in the presence of 2uM inhibitor.
The target of experiment [7] is Serine/threonine-protein kinase PAK 4 (Homo sapiens, UniProt O96013). Description: Percentage PAK4 activity remaining in the presence of 2uM inhibitor.
Experiment [8] deals with T1, Myosin light chain kinase, smooth muscle. The experiment can be described thus: Percentage SmMLCK activity remaining in the presence of 3uM inhibitor.
The target of experiment [9] is T2, Dual specificity tyrosine-phosphorylation-regulated kinase 2 (Homo sapiens) (UniProt Q92630).
T2 sequence (whole entry): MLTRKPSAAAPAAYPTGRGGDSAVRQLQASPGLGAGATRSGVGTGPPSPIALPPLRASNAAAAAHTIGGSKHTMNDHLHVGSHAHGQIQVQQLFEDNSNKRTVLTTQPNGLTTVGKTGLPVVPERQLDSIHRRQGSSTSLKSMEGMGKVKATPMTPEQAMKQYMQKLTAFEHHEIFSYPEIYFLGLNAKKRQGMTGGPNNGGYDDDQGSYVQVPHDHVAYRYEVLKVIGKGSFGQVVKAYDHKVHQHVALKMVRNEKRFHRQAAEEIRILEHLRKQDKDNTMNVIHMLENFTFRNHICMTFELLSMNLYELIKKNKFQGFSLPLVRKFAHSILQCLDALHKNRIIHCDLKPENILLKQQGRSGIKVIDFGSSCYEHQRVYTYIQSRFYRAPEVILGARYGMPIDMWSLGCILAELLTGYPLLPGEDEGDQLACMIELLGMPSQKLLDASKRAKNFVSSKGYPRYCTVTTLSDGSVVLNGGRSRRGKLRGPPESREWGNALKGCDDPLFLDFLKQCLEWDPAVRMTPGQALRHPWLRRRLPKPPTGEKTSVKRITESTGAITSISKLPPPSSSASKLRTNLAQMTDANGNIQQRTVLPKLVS
Description: Percentage DYRK2 activity remaining in the presence of 3uM inhibitor.

In experiment [10] the target is T3, Serine/threonine-protein kinase Nek2 (Homo sapiens) (UniProt P51955).
T3 sequence (whole entry): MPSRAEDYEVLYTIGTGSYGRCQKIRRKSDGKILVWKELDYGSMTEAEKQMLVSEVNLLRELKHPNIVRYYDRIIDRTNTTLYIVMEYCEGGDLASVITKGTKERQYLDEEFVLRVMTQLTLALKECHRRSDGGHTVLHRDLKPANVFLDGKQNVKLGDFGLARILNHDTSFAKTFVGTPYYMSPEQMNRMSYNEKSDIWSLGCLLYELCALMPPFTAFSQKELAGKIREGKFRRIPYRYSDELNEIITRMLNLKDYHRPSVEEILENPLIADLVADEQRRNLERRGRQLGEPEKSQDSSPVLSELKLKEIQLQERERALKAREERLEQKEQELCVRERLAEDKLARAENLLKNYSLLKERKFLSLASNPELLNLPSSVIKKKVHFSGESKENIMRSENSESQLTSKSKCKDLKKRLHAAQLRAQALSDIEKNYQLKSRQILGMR
The experiment can be described thus: Percentage NEK2a activity remaining in the presence of 3uM inhibitor.

For experiment [11], the target named is Calcium/calmodulin-dependent protein kinase kinase 2 (Homo sapiens) (UniProt Q96RR4). The experiment can be described thus: Percentage CaMKKbeta activity remaining in the presence of 3uM inhibitor. The following applies: filed as antagonist.
In experiment [12] the target is MAP kinase-interacting serine/threonine-protein kinase 1 (Homo sapiens) (UniProt Q9BUB5). Description: Percentage MNK1 activity remaining in the presence of 3uM inhibitor. To be noted: filed as antagonist.
Experiment [13] has as its target T4, 3-phosphoinositide-dependent protein kinase 1 (Homo sapiens) (UniProt O15530).
T4 sequence (whole entry): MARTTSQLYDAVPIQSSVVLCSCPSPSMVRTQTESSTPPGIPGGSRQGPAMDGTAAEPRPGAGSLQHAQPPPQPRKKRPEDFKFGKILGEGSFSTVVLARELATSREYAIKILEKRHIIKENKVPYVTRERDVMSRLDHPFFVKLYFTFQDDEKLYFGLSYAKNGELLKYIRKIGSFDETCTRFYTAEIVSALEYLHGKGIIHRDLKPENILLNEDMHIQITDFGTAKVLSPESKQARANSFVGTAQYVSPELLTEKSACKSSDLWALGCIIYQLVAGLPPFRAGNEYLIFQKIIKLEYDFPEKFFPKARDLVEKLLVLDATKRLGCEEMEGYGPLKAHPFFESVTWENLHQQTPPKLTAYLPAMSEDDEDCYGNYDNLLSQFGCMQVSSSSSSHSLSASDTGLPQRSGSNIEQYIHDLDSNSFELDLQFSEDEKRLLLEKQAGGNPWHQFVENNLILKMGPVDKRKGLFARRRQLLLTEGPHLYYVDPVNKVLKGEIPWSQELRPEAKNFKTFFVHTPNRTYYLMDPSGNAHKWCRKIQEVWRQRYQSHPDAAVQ
Description: Percentage PDK1 activity remaining in the presence of 3uM inhibitor.

Experiment [14] addresses T5, Mitogen-activated protein kinase 13 (Homo sapiens) (UniProt O15264).
T5 sequence (whole entry): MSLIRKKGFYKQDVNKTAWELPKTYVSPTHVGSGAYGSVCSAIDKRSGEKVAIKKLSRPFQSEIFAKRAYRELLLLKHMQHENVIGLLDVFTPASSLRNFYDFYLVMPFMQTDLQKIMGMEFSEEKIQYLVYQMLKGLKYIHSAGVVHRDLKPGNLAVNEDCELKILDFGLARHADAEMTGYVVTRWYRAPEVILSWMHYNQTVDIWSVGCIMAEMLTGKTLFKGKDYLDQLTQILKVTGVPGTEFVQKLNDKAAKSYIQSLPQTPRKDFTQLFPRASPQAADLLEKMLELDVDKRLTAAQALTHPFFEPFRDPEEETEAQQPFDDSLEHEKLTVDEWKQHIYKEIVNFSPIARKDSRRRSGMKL
The experiment can be described thus: Percentage p38delta activity remaining in the presence of 3uM inhibitor.

The target of a further experiment is Ephrin type-A receptor 2 (Homo sapiens, UniProt P29317). The experiment can be described thus: Inhibition of Eph-A2 in the presence of 50uM ATP.
For experiment [15], the target named is Casein kinase I isoform delta (Homo sapiens, UniProt P48730). Description: Percentage CK1delta activity remaining in the presence of 3uM inhibitor.
Sequence of Casein kinase I isoform delta (P48730 whole entry, looked up, canonical isoform): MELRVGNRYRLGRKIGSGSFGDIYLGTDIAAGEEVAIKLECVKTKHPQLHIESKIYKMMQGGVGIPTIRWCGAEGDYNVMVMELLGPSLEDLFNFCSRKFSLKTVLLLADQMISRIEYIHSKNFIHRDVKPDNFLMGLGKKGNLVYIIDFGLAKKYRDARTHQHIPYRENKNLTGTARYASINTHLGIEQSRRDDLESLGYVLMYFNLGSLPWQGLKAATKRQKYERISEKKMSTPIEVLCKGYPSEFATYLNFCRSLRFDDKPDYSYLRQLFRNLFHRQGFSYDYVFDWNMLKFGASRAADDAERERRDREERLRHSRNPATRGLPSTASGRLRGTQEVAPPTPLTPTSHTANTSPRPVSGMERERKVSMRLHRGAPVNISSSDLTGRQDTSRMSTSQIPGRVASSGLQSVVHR

T1 sequence (Q15746 whole entry): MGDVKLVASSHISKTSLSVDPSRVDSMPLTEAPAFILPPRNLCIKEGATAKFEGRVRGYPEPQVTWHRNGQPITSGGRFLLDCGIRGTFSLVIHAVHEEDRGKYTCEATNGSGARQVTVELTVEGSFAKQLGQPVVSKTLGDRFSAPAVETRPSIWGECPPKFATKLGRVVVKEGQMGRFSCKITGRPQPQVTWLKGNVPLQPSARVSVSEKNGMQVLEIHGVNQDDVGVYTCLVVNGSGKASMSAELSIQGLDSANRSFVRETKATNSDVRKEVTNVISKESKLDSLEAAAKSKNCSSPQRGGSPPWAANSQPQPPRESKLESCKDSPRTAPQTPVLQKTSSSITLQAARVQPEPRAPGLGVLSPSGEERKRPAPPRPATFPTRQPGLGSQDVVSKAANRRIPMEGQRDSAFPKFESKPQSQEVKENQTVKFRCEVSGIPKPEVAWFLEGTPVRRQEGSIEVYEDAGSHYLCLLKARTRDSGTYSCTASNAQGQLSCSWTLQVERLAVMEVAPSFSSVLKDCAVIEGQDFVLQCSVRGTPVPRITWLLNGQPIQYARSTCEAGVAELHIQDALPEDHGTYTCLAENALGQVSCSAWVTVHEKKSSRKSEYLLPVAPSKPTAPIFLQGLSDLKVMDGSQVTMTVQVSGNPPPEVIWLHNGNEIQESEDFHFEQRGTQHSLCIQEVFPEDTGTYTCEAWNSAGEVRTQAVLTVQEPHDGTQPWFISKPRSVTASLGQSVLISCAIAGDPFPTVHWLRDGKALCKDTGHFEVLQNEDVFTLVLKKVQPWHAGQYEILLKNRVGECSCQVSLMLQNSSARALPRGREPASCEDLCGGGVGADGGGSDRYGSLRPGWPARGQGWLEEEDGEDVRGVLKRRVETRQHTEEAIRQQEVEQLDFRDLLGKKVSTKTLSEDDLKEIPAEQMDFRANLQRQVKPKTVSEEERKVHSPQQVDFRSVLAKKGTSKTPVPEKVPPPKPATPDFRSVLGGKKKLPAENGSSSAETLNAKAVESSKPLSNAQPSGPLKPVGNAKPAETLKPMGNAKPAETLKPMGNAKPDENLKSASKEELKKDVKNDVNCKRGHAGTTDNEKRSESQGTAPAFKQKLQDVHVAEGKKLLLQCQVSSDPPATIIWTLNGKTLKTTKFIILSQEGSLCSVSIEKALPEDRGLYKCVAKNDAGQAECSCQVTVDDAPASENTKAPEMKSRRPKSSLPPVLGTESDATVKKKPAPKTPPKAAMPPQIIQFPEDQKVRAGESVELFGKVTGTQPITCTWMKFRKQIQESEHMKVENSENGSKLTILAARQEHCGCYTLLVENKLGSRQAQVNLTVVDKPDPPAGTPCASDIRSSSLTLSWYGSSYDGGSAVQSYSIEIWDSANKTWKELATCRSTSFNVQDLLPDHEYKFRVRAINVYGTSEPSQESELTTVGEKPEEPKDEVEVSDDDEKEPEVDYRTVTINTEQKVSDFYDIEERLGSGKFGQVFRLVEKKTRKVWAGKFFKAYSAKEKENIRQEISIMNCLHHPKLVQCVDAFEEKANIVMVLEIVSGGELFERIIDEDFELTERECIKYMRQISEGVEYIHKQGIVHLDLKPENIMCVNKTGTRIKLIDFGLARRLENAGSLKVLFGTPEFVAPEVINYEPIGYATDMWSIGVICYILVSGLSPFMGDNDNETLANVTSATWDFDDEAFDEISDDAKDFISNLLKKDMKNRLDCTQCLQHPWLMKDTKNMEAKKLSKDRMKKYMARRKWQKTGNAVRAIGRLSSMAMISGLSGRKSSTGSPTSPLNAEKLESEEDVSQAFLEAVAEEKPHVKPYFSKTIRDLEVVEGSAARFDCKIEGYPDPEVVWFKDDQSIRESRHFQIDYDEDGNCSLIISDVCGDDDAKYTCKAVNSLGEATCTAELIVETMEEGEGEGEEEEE
Sequence of Serine/threonine-protein kinase PAK 4 (O96013 whole entry, looked up): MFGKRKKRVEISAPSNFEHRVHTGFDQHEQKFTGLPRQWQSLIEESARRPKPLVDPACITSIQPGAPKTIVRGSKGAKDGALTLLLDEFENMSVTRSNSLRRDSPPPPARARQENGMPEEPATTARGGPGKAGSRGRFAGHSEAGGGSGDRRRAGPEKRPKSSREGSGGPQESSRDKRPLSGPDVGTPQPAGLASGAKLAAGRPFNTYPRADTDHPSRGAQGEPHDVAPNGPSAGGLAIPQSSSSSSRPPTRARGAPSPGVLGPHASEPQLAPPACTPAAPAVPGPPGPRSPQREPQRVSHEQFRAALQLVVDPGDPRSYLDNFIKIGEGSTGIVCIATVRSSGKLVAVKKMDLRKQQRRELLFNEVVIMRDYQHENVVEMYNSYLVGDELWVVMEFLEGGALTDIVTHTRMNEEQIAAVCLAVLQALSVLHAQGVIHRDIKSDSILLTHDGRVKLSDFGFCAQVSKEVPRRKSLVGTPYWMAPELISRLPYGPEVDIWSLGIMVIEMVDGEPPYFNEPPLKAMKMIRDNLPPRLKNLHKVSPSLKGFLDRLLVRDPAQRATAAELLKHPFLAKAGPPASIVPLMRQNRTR
Sequence of Ephrin type-A receptor 2 (P29317 whole entry, canonical isoform): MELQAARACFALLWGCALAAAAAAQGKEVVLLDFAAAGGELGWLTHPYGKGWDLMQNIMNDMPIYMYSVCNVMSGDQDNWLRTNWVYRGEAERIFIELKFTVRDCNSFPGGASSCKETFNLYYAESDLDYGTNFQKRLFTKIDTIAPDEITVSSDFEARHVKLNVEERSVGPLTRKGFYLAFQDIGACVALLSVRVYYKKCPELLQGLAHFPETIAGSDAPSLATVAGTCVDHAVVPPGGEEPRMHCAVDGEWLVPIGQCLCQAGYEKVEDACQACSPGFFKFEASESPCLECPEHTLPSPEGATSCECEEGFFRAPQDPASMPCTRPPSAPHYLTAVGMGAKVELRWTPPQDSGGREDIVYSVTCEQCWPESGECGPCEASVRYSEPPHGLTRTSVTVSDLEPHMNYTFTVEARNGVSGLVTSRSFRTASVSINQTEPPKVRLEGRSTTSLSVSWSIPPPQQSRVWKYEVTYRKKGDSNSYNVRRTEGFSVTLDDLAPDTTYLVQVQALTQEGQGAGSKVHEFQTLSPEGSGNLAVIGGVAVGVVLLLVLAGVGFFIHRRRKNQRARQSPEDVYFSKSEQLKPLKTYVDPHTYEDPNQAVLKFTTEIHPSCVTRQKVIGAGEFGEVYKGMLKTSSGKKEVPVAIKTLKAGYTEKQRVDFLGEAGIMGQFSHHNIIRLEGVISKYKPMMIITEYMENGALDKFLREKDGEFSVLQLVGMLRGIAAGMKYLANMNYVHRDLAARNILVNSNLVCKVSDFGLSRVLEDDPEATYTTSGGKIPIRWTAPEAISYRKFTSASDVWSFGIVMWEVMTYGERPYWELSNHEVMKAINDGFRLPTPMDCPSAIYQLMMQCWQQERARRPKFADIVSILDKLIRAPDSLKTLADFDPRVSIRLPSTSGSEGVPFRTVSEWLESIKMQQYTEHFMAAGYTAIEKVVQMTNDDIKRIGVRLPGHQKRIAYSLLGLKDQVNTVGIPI
Sequence of Calcium/calmodulin-dependent protein kinase kinase 1 (Homo sapiens) (Q8N5S9 whole entry, looked up): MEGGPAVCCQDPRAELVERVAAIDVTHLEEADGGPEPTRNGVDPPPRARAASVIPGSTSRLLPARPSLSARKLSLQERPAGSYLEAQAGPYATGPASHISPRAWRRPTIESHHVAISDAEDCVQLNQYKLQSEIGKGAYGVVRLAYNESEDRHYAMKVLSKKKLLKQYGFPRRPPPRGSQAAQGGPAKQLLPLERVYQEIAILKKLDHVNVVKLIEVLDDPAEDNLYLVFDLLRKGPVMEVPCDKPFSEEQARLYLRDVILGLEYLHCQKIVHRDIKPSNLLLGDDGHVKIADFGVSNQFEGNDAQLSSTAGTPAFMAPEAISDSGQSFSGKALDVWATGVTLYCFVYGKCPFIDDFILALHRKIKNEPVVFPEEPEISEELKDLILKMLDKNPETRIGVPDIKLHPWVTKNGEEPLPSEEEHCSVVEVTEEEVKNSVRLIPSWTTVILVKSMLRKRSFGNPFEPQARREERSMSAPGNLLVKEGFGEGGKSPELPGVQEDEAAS
Sequence of Serine/threonine-protein kinase PLK1 (P53350 whole entry): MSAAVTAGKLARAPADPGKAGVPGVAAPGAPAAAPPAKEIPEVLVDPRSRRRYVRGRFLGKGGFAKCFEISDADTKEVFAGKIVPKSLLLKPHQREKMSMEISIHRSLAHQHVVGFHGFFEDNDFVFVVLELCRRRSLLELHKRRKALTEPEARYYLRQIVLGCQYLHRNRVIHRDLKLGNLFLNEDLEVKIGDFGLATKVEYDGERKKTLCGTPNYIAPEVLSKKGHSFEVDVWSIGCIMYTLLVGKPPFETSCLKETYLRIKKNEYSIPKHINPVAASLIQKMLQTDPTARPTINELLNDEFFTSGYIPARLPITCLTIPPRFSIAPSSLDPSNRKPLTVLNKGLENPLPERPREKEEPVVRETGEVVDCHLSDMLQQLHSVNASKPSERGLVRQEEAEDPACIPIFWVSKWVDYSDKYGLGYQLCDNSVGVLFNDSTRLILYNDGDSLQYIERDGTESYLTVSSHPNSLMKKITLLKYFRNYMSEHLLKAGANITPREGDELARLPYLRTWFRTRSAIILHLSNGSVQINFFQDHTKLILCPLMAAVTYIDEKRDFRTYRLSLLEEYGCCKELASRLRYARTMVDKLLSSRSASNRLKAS

With `Cn1cc(C2=C(c3ccc(Cl)cc3Cl)C(=O)NC2=O)c2ccccc21`, the Activity is 87% on Aurora kinase B; 85% in [1]; 41% in [2]; 96% in [3]; 52% in [4]; 60% in experiment [5]. Besides, the Activity in experiment [6] came to 62%; in [7] it was 84%.

Consider `Cc1ccc(-c2c(C(=O)CF)n(CCCO)c3ncnc(N)c23)cc1`, for which the Activity is 82% in experiment [8]; 91% in experiment [9]; 95% in experiment [10]; 49% in [11]; 42% in [12]; 89% in experiment [13]. The Activity in experiment [14] is 103%; in [15], 63%. Also, on Ephrin type-A receptor 2, the IC50 is given as 760 nM (antagonist).
